Test results: patent US8552064B2, “Suramin and derivatives thereof as topical microbicide and contraceptive” (Eastern Virginia Medical School, priority 2005, dated 2013)
Converted amounts (≈) assume the structure as drawn.

Columns and labels:
[1] = tested on: sperm; experiment: Sander Cramer sperm immobilization test; format: cell-based
Method: The Sander Cramer test was used to determine the effect on sperm immobilization as described in Sander F V and Cramer S D., Hum. Fertil. 6: 134-153 (1941). This test may be used to evaluate the sperm-immobilizing effectiveness of contraceptive compositions. Serial dilutions of each test composition were added to semen adjusted to a designated number, e.g., 60 million of motile sperm per milliliter at room temperature (i.e., 25° C.). The end point is the greatest dilution at which all of the sperm are immobilized within 20 seconds. Results are expressed as minimum effective concentration in milligrams per milliliter.

[2] = tested on: HIV-1 clinical isolates; experiment: Clinical isolates in PBMC assay; format: cell-based
Method: Peripheral blood mononuclear cells (PBMCs) were obtained from normal hepatitis and HIV-1 negative donors by ficoll hypaque gradient separation. Briefly, anti-coagulated blood is diluted 1:1 with Dulbecco's phosphate buffered saline without Ca^++ and Mg^++ (PBS) and layered over 14 mL of Lymphocyte separation media in a 50 ml centrifuge tube. Tubes were then centrifuged for 30 minutes at 600×g. Banded PBMCs were gently aspirated from the resulting interface and subsequently washed 2× with PBS by low speed centrifugation. The mononuclear cells were counted, viability was determined by Trypan Blue dye exclusion and the cells were resuspended in RPMI 1640 medium supplemented with 15% FBS (heat inactivated), 2 mM L-glutamine, 100 U/mL penicillin, 100 μg/mL streptomycin, and 10 μg/mL gentamycin with 20 U/mL recombinant IL-2 (R&D Systems, Minneapolis, Minn.). […]
Human peripheral blood mononuclear cells from a minimum of two donors, that have been stimulated with PHS- and IL-2, were counted and their viability was determined by Trypan Blue dye exclusion and mixed in equal rations. Pooled donors were used to minimize the variability observed between individual donors, which results from quantitative and qualitative differences in HIV infection, and overall response to the PHA and IL-2 of primary lymphocyte populations. […]

[3] = tested on: CaSki cells; experiment: Cytotoxicity in the anti-herpes study; format: cell-based, human; details: highest concentration tested (1000 μg/mL)
[4] = tested on: sperm; experiment: Sperm progressive motility dose-response and time studies, CASA; format: cell-based, human
[5] = tested on: human sperm binding to zona pellucida; experiment: Hemizona assay (HZA), human sperm-zona binding; format: cell-based
Method: The hemizona assay, as described in Burkman L. J., et al., Fertil. Steril., 49: 688-697 (1988), was used to measure the ability of sperm to undergo capacitation and bind to the zona pellucida of an oocyte. Briefly, in this assay, motile normal sperm were separated in media with bovine serum albumin, which triggers capacitation. Human motile sperm were separated using a swim-up technique and incubated with 1 mM suramin or solvent-control medium for 15 minutes in 100 μL medium droplets covered with mineral oil, at 37° C., 5% CO2. Sperm were then incubated with dead oocytes which are surrounded by the zona pellucida, an acellular coating of oocytes. Bisected hemizonae corresponding to one oocyte were placed each in the test (suramin) and control (solvent) droplets and incubated for an additional 4 hours. Sperm-hemizonae complexes were washed extensively and capacitated spermatozoa bound to the outer surface of the zonae and were counted under an inverted microscope. The Hemizona Index (HZI) was calculated by dividing the number of suramin-treated sperm bound to one hemizona by the number of untreated (control) sperm bound to the other hemizona.

[6] = tested on: human sperm, zona-free hamster eggs; experiment: Hamster-egg penetration test (HEPT); format: cell-based
Method: The hamster-egg penetration test (HEPT) was used to predict the fertilizing ability of human sperm by evaluating the sperm's ooctye-penetration capability as described in Yanagimachi R. et al., Biol. Reprod., 15: 471-6 (1976). The zona pellucida of hamster eggs was dissolved by treatment with a protease, and human sperm were subsequently added to the zona free eggs. Sperm binding and penetration were assessed under a standard microscope (60× magnification) after placing the sperm-egg complexes onto polylysine-coated glass slides and covered them with 22×22 mm glass coverslips. The ability of the sperm to bind and enter the egg was scored by counting the sperm nuclei lying within the egg cytoplasm. The effect of the test compound was determined by comparing the number of sperm bound to the surface of the eggs and the percentage of penetrated eggs.

## Cc1ccc(C(=O)Nc2ccc(S(=O)(=O)O)c3cc(S(=O)(=O)O)cc(S(=O)(=O)O)c23)cc1NC(=O)c1cccc(NC(=O)Nc2cccc(C(=O)Nc3cc(C(=O)Nc4ccc(S(=O)(=O)O)c5cc(S(=O)(=O)O)cc(S(=O)(=O)O)c45)ccc3C)c2)c1 [Suramin, 8,8′-(carbonylbis(imino-3,1-phenylenecarbonylimino(4-methyl-3,1-phenylene)carbonylimino))bis-1,3,5-naphthalene trisulfonic acid]
[1]; 20 mg/mL
  sperm-immobilizing activity: no significant sperm-immobilizing activity
[1]; 10 and 5 mg/mL
  sperm motility in Sander Cramer test: all spermatozoa from samples were motile
[1]; highest concentration = 25 mg/mL
  Potency, Motility (Sander Cramer, Motility, CASA): None
[2]
  Potency, HIV-1 Clin Isolates: High
[2]; Human immunodeficiency virus 1, PBMC, read-out: IC50 Clin Isolates
  IC50: 14.6 µg/mL (≈ 11.3 µM)
[3]
  cytotoxicity: not being significantly cytotoxic
[4]; 1 mM
  sperm motion parameters by CASA: no significant changes in sperm motion parameters
[4]; 7.5 mg/mL
  sperm motion characteristics vs control: did not appear to be significantly different
[4]; 1-10,000 μg/mL or 5-0.07 mM
  sperm progressive motility and membrane integrity vs solvent control: no alteration of sperm progressive movement and viability
[4]; suboptimal doses, prolonged incubation (e.g., 30 min.)
  sperm motility, time-dependent study: no alteration of sperm motility
[5]
  Potency, ZP binding (HZA): High
[5]; 1 mM, n=9
  Hemizona Index (HZI): 0.08±0.01
[5]; Homo sapiens, Sperm, 1 mM
  inhibition at 1000 µM: 92%
[6]
  Potency, Oolemma binding/Penetration (HEPT): High
  inhibition of penetration: 100%
  inhibition of sperm binding to hamster zona-free oocytes: 75%
[6]; n=28 oocytes
  sperm penetration/fertilization of zona-free eggs: completely abolished sperm penetration/fertilization
